Laboratory results taken from ChEMBL document CHEMBL4334507, “Development and Characterization of a Fluorescent Probe for GLS1 and the Application for High-Throughput Screening of Allosteric Inhibitors” (J Med Chem, 2019).
pIC50, pKd: −log10 of the molar value. ≈ marks a conversion by molar mass, not a printed value.

Legend:
[1] = target: T1, Glutaminase kidney isoform, mitochondrial (Homo sapiens, UniProt O94925); experiment: Inhibition of N-[2-[(3',6'-dihydroxy-1-oxo-spiro[isobenzofuran-3,9'-xanthene]-5-yl)carbamothioylamino]ethyl]-N'-[6-[4-[5-[[2-(2-pyridyl)acetyl]amino]-1,3,4-thiadiazol-2-yl]butyl]pyridazin-3-yl]pentanediamide binding to human GLS1 expressed in Escherichia coli strain BL21 (DE3)pLysS by fluorescence polarization binding assay
T1 sequence (O94925 whole entry): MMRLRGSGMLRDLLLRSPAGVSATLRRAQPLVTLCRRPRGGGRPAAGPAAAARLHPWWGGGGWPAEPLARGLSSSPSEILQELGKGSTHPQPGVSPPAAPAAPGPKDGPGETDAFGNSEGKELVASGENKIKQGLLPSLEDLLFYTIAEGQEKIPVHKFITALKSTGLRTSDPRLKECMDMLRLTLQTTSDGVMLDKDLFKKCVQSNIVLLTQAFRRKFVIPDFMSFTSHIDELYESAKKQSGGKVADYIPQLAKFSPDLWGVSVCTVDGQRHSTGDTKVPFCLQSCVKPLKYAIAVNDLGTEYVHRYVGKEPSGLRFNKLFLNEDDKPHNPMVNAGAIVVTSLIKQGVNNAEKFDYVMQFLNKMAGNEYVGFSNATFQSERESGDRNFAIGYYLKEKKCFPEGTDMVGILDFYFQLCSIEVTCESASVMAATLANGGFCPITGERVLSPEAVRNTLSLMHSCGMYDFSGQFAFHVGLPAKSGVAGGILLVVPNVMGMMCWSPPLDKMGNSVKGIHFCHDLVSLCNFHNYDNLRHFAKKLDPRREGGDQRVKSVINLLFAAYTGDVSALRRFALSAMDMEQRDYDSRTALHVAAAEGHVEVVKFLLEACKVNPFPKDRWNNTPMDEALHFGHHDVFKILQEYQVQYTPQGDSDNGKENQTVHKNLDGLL

HCT-116 = experiment: Antiproliferative activity against human HCT116 cells assessed as reduction in cell viability incubated for 72 hrs by MTT assay; type: functional, cell-based; details: HCT-116, 72 h
MDA-MB-436 = experiment: Antiproliferative activity against human MDA-MB-436 cells assessed as reduction in cell viability incubated for 72 hrs by MTT assay; type: functional, cell-based; details: MDA-MB-436, 72 h
[2] = target: T1, Glutaminase kidney isoform, mitochondrial; experiment: Inhibition of human GLS1 expressed in Escherichia coli strain BL21 (DE3)pLysS pre-incubated for 10 mins before glutamine addition and measured after 60 mins by bovine liver glutamate dehydrogenase based coupled enzyme assay
[3] = Distribution coefficient, logD of the compound incubated for 72 hrs by LC-MS based shake-flask method; type: physicochemical; details: octanol/water
[4] = target: T2, Glutaminase kidney isoform, mitochondrial (Homo sapiens) (UniProt O94925); experiment: Binding affinity to 1 uM human GLS1 expressed in Escherichia coli strain BL21 (DE3)pLysS by fluorescence polarization binding assay relative to control
T2 sequence (whole entry): T1 sequence (O94925 whole entry)

[5] = target: T1, Glutaminase kidney isoform, mitochondrial; experiment: Binding affinity to human GLS1 expressed in Escherichia coli strain BL21 (DE3)pLysS by fluorescence polarization binding assay
[6] = target: T2, Glutaminase kidney isoform, mitochondrial (Homo sapiens); experiment: (§1) Binding affinity to human GLS1 expressed in Escherichia coli strain BL21 (DE3)pLysS by SPR assay
[7] = target: T1, Glutaminase kidney isoform, mitochondrial; experiment: as §1
[8] = target: Serum albumin (Bos taurus) (UniProt P02769); experiment: Binding affinity to BSA by fluorescence polarization binding assay relative to control; details: bovine
[9] = target: T2, Glutaminase kidney isoform, mitochondrial (Homo sapiens)
Description: Binding affinity to human GLS1 expressed in Escherichia coli strain BL21 (DE3)pLysS assessed as change in melting temperature by SYPRO orange dye based protein thermal shift assay

[10] = Intrinsic aqueous solubility incubated for 72 hrs by LC-MS based shake-flask method; type: physicochemical; details: buffer
[11] = Ratio of intrinsic aqueous solubility of the test compound to CB839 incubated for 72 hrs by LC-MS based shake-flask method; type: physicochemical; details: buffer

Chain of Serum albumin (Bos taurus) (P02769 whole entry, looked up, canonical isoform): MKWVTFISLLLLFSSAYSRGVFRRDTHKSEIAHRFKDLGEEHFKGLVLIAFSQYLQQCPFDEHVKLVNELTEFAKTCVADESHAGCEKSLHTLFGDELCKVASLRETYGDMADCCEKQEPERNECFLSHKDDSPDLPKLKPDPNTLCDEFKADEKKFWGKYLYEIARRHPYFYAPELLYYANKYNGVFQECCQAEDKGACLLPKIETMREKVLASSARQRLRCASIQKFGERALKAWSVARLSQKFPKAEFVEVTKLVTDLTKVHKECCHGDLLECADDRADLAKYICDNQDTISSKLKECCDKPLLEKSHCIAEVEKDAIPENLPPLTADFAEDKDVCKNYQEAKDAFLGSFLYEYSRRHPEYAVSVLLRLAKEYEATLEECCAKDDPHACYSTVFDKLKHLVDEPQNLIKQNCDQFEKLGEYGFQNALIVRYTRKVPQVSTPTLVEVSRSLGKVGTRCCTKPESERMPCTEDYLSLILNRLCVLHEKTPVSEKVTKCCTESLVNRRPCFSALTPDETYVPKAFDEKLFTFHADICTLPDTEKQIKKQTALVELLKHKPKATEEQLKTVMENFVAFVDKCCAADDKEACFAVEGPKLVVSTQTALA

Structure (SMILES)	pIC50 [1]	pIC50 (HCT-116)	pIC50 (MDA-MB-436)	pIC50 [2]	further results
O=C(CCCC(=O)Nc1ccc(CCCCc2nnc(NC(=O)Cc3ccccn3)s2)nn1)NCCNC(=S)Nc1ccc2c(c1)C1(OC2=O)c2ccc(O)cc2Oc2cc(O)ccc21	–	–	–	–	fold change (FC) [4]: 2; pKd [5]: 6.35; Activity [6]: Dose-dependent effect; pKd [7]: 6.21; Activity [8]: Not Active
Cc1ccc(Cn2cc(CCC(=O)Nc3ccc(CCCCc4nnc(NC(=O)Cc5ccccn5)s4)nn3)nn2)c(C)c1	6.68	6.14	6.70	6.96	–
O=C(CCc1cn(Cc2ccc(Br)cc2)nn1)Nc1nnc(CCCCc2nnc(NC(=O)Cc3ccccc3)s2)s1	5.97	5.73	5.39	6.01	–
Cc1ccc(Cn2cc(CCC(=O)Nc3nnc(CCCCc4nnc(NC(=O)Cc5ccccc5)s4)s3)nn2)cc1	6.25	5.80	5.75	6.38	–
O=C(CCc1cn(Cc2ccc(Cl)cc2)nn1)Nc1nnc(CCCCc2nnc(NC(=O)Cc3ccccc3)s2)s1	5.86	5.47	5.94	5.90	–
O=C(Cc1ccccc1)Nc1nnc(CCSCCc2nnc(NC(=O)Cc3ccccc3)s2)s1	–	5.99	5.62	–	–
O=C(CCc1cn(Cc2ccc([N+](=O)[O-])cc2)nn1)Nc1nnc(CCCCc2nnc(NC(=O)Cc3ccccc3)s2)s1	5.56	5.98	4.97	5.60	–
N#Cc1ccc(Cn2cc(CCC(=O)Nc3nnc(CCCCc4nnc(NC(=O)Cc5ccccc5)s4)s3)nn2)cc1	6.03	5.29	5.53	6.08	–
Cc1ccc(Cn2cc(CCC(=O)Nc3nnc(CCCCc4nnc(NC(=O)Cc5ccccc5)s4)s3)nn2)c(C)c1	6.30	6.00	6.37	6.55	ΔTm [9]: 7.7 °C; pKd [7]: 6.46
O=C(CCc1cn(Cc2ccccc2)nn1)Nc1nnc(CCCCc2nnc(NC(=O)Cc3ccccc3)s2)s1	6.04	5.32	5.94	6.05	–
Cc1cccc(C)c1Cn1cc(CCC(=O)Nc2nnc(CCCCc3nnc(NC(=O)Cc4ccccc4)s3)s2)nn1	6.11	6.13	6.12	6.28	–
O=C(CCc1cn(Cc2ccc(F)cc2)nn1)Nc1nnc(CCCCc2nnc(NC(=O)Cc3ccccc3)s2)s1	5.91	5.96	6.46	5.95	–

Further compounds by rising pIC50 (HCT-116), results first:

pIC50 [1]	pIC50 (HCT-116)	pIC50 (MDA-MB-436)	pIC50 [2]	Structure (SMILES)	further results
6.12	6.25	5.26	6.29	COc1ccc(Cn2cc(CCC(=O)Nc3nnc(CCCCc4nnc(NC(=O)Cc5ccccc5)s4)s3)nn2)cc1	–
6.07	6.35	6.10	6.30	COc1ccc(Cn2cc(CCC(=O)Nc3nnc(CCCCc4nnc(NC(=O)Cc5ccccc5)s4)s3)nn2)cc1OC	–
6.40	6.42	6.40	6.48	COc1ccc(Cn2cc(CCC(=O)Nc3ccc(CCCCc4nnc(NC(=O)Cc5ccccn5)s4)nn3)nn2)cc1OC	–
6.34	6.57	6.47	6.49	Cc1cccc(C)c1Cn1cc(CCC(=O)Nc2ccc(CCCCc3nnc(NC(=O)Cc4ccccn4)s3)nn2)nn1	–
6.41	6.60	6.51	6.52	O=C(CCc1cn(Cc2ccc(OC(F)(F)F)cc2)nn1)Nc1ccc(CCCCc2nnc(NC(=O)Cc3ccccn3)s2)nn1	–
6.72	6.64	6.20	6.82	COc1ccc(Cn2cc(CCC(=O)Nc3ccc(CCCCc4nnc(NC(=O)Cc5ccccn5)s4)nn3)nn2)cc1	–
7.14	6.74	6.68	7.36	O=C(CCc1cn(Cc2ccc(C(F)(F)F)cc2)nn1)Nc1ccc(CCCCc2nnc(NC(=O)Cc3ccccn3)s2)nn1	–
7.39	6.82	6.74	7.57	Cc1ccc(Cn2cc(CCC(=O)Nc3ccc(CCCCc4nnc(NC(=O)Cc5ccccn5)s4)nn3)nn2)cc1	ΔTm [9]: 16.5 °C; logD at 72 h [3]: 1.29; solubility thermodynamic at 72 h [10]: 20.8 µg/mL (≈ 34.9 µM); Ratio [11]: 9; pKd [7]: 7.17
–	7.22	6.28	–	O=C(Cc1cccc(OC(F)(F)F)c1)Nc1ccc(CCCCc2nnc(NC(=O)Cc3ccccn3)s2)nn1	logD at 72 h [3]: 1.9
